Test results from US9328374B2, “Selective culture medium and method for detecting carbapenem-resistant bacteria in a test sample” (Institut National de la Sante et de la Recherche Medicale …, priority 2011, dated 2016).
Like-named read-outs stand apart in the source and are kept apart here.

Key:
Experiment in all cases: MIC of imipenem, ertapenem and meropenem
K. pneumoniae = type: cell-based, Klebsiella pneumoniae; conditions: Klebsiella pneumoniae, read-out: MIC
P. rettgeri = type: cell-based, Providencia rettgeri
C. koseri = type: cell-based

For `C[C@@H](O)[C@H]1C(=O)N2C(C(=O)O)=C(S[C@@H]3CN[C@H](C(=O)Nc4cccc(C(=O)O)c4)C3)[C@H](C)[C@H]12` [ETP, ertapenem], which MIC (K. pneumoniae; K. pneumoniae LIB (OXA-48)) is on record?
Its MIC is over 32 µg/mL.

What about the MIC (K. pneumoniae; K. pneumoniae LIB, OXA-48) of the same compound?
The MIC was 16 µg/mL.

What about the MIC (K. pneumoniae; K. pneumoniae LIE, KPC-2 + TEM-2 + OXA-9) of the same compound?
The MIC was over 32 µg/mL.

What about the MIC (K. pneumoniae; K. pneumoniae LOU, OXA-48) of the same compound?
The MIC was 16 µg/mL.

What about the MIC (K. pneumoniae; K. pneumoniae MAD (VIM-1 + CTX-M-3)) of the same compound?
The MIC was 0.5 µg/mL.

What about the MIC (K. pneumoniae; K. pneumoniae MAD, VIM-1+ CTX-M-3) of the same compound?
The MIC was 0.5 µg/mL.

What about the MIC (K. pneumoniae; K. pneumoniae MEK (CTX-M-15 + SHV-11)) of the same compound?
The MIC was over 32 µg/mL.

And the MIC (K. pneumoniae; K. pneumoniae MEK, CTX-M-15 + SHV-11, non-carbapenemase producer, porin deficiency)?
Its MIC is over 32 µg/mL.

What about the MIC (K. pneumoniae; K. pneumoniae MUS (KPC-2 + TEM-1 + SHV-11 + SHV-12)) of the same compound?
The MIC was 4 µg/mL.

And the MIC (K. pneumoniae; K. pneumoniae MUS, KPC-2 + TEM-1 + SHV-11 + SHV-12)?
The MIC was 4 µg/mL.

What about the MIC (K. pneumoniae; K. pneumoniae OM2 (NDM-1 + TEM-1 + CTX-M-3 + SHV-11 + OXA-1)) of the same compound?
Its MIC is 8 µg/mL.

What about the MIC (K. pneumoniae; K. pneumoniae OM2, NDM-1 + TEM-1 + CTX-M-3 + SHV-11 + OXA-1) of the same compound?
The MIC was 8 µg/mL.

What about the MIC (K. pneumoniae; K. pneumoniae OM4, NDM-1 + TEM-1 + CTX-M-15 + SHV-12 + OXA-9) of the same compound?
The MIC was over 32 µg/mL.

What about the MIC (K. pneumoniae; K. pneumoniae OM8, NDM-1 + TEM-1 + CTX-M-15 + SHV-11 + OXA-1) of the same compound?
Its MIC is over 32 µg/mL.

What about the MIC (K. pneumoniae; K. pneumoniae OM11, OXA-48 + TEM-1 + CTX-M-14) of the same compound?
The MIC was 0.75 µg/mL.

What about the MIC (K. pneumoniae; K. pneumoniae OM13, NDM-1 + TEM-1 + CTX-M-15 + SHV-28 + OXA-1 + OXA-9) of the same compound?
Its MIC is 4 µg/mL.

What about the MIC (K. pneumoniae; K. pneumoniae OM14, OXA-48 + TEM-1) of the same compound?
Its MIC is 1 µg/mL.

And the MIC (K. pneumoniae; K. pneumoniae OM15, NDM-1 + CTX-M-15 + SHV-130 + OXA-1)?
Its MIC is 12 µg/mL.

And the MIC (K. pneumoniae; K. pneumoniae OM16, NDM-1 + CTX-M-15 + OXA-1 + OXA-181)?
Its MIC is over 32 µg/mL.

What about the MIC (K. pneumoniae; K. pneumoniae OM19, NDM-1 + CTX-M-15 + SHV-12 + OXA-1) of the same compound?
Its MIC is 24 µg/mL.

And the MIC (K. pneumoniae; K. pneumoniae OMA419 (NDM-1 + OXA-1))?
The MIC was 6 µg/mL.

What about the MIC (K. pneumoniae; K. pneumoniae OMA419, NDM-1 + OXA-1) of the same compound?
Its MIC is 6 µg/mL.

What about the MIC (K. pneumoniae; K. pneumoniae OMA601, NDM-1 + CTX-M-15 + OXA-1 + OXA-9) of the same compound?
The MIC was over 32 µg/mL.

And the MIC (K. pneumoniae; K. pneumoniae OMA (OXA-181 + CTX-M-15 + OXA-1))?
The MIC was 2 µg/mL.

And the MIC (K. pneumoniae; K. pneumoniae OMA, OXA-181 + CTXM-15 + OXA-1)?
The MIC was 2 µg/mL.

What about the MIC (K. pneumoniae; K. pneumoniae RAM (OXA-48)) of the same compound?
The MIC was 4 µg/mL.

And the MIC (K. pneumoniae; K. pneumoniae RAM, OXA-48)?
Its MIC is 4 µg/mL.

What about the MIC (K. pneumoniae; K. pneumoniae ROB (OXA-48 + CTX-M-15 + TEM-1)) of the same compound?
The MIC was 3 µg/mL.

And the MIC (K. pneumoniae; K. pneumoniae ROU (OXA-48 + CTX-M-15))?
The MIC was 1.5 µg/mL.

What about the MIC (K. pneumoniae; K. pneumoniae ROU, OXA-48 + CTX-M-15) of the same compound?
Its MIC is 1.5 µg/mL.

And the MIC (K. pneumoniae; K. pneumoniae SCO (OXA-48))?
Its MIC is 0.75 µg/mL.

And the MIC (K. pneumoniae; K. pneumoniae SCO, OXA-48)?
The MIC was 0.75 µg/mL.

What about the MIC (K. pneumoniae; K. pneumoniae SHI (CTX-M-15 + TEM-1 + SHV-1)) of the same compound?
The MIC was 1 µg/mL.

What about the MIC (K. pneumoniae; K. pneumoniae SHI, CTX-M-15 + TEM-1 + SHV-11, non-carbapenemase producer, porin deficiency) of the same compound?
Its MIC is 1 µg/mL.

And the MIC (K. pneumoniae; K. pneumoniae SHM (CTX-M-15 + TEM-1 + SHV-11))?
Its MIC is over 32 µg/mL.

And the MIC (K. pneumoniae; K. pneumoniae SHM, CTX-M-15 + TEM-1 + SHV-11, non-carbapenemase producer, porin deficiency)?
The MIC was over 32 µg/mL.

And the MIC (K. pneumoniae; K. pneumoniae SIC (OXA-48 + CTX-M-15 + SHV-28))?
The MIC was 1 µg/mL.

And the MIC (K. pneumoniae; K. pneumoniae SIC, OXA-48 + CTX-M-15 + SHV-28)?
The MIC was 1 µg/mL.

What about the MIC (K. pneumoniae; K. pneumoniae SIM (CTX-M-15 + TEM-1 + SHV-1)) of the same compound?
Its MIC is over 32 µg/mL.

What about the MIC (K. pneumoniae; K. pneumoniae SIM, CTX-M-15 + TEM-1 + SHV-1, non-carbapenemase producer, porin deficiency) of the same compound?
Its MIC is over 32 µg/mL.

What about the MIC (K. pneumoniae; K. pneumoniae TAW, IMP-8 + SHV-12) of the same compound?
Its MIC is 0.5 µg/mL.

And the MIC (K. pneumoniae; K. pneumoniae TIK, OXA-48)?
The MIC was 2 µg/mL.

And the MIC (K. pneumoniae; K. pneumoniae TUR (IMP-1))?
Its MIC is 2 µg/mL.

And the MIC (K. pneumoniae; K. pneumoniae TUR, IMP-1)?
Its MIC is 2 µg/mL.

And the MIC (K. pneumoniae; K. pneumoniae TWA, IMP-8)?
Its MIC is 1 µg/mL.

And the MIC (K. pneumoniae; K. pneumoniae UK (NDM-1 + CTX-M-15 + CMY-4 + OXA-1))?
The MIC was over 32 µg/mL.

What about the MIC (K. pneumoniae; K. pneumoniae UK, NDM-1 + CTX-M-15 + CMY-4 + OXA-1) of the same compound?
Its MIC is over 32 µg/mL.

What about the MIC (K. pneumoniae; K. pneumoniae VER, OXA-48 + TEM-1 + CTX-M-15 + SHV-11) of the same compound?
Its MIC is 2 µg/mL.

What about the MIC (K. pneumoniae; K. pneumoniae VSG (OXA-48 + TEM-1 + CTX-M-15 + OXA-1)) of the same compound?
The MIC was 3 µg/mL.

And the MIC (K. pneumoniae; K. pneumoniae VSG, OXA-48 + TEM-1 + CTX-M-15 + OXA-1)?
The MIC was 3 µg/mL.

What about the MIC (K. pneumoniae; K. pneumoniae YC, KPC-2 + TEM-1 + SHV-11 + SHV-12 + OXA-9) of the same compound?
The MIC was 24 µg/mL.

What about the MIC (K. pneumoniae; strain K. pneumoniae 7725, SHV-1, non-carbapenemase producer) of the same compound?
Its MIC is 0.006 µg/mL.

And the MIC (K. pneumoniae; strain K. pneumoniae 648236, SHV-2a, non-carbapenemase producer)?
Its MIC is 2 µg/mL.

What about the MIC (K. pneumoniae; strain K. pneumoniae ALE, CTX-M-15 + SHV-1, non-carbapenemase producer) of the same compound?
Its MIC is over 32 µg/mL.

What about the MIC (K. pneumoniae; strain K. pneumoniae AMS, OXA-48 + TEM-1 + CTX-M-15 + OXA-1) of the same compound?
The MIC was 2 µg/mL.

What about the MIC (K. pneumoniae; strain K. pneumoniae BAJ, OXA-48 + TEM-1 + CTX-M-15 + SHV-28) of the same compound?
The MIC was 1.5 µg/mL.

And the MIC (K. pneumoniae; strain K. pneumoniae BED, CTX-M-15 + TEM-1 + SHV-11, non-carbapenemase producer)?
Its MIC is over 32 µg/mL.

What about the MIC (K. pneumoniae; strain K. pneumoniae BEL, OXA-48) of the same compound?
The MIC was 4 µg/mL.

And the MIC (K. pneumoniae; strain K. pneumoniae BEN, OXA-48 + TEM-1 + CTX-M-15 + SHV-28)?
The MIC was 1 µg/mL.

And the MIC (K. pneumoniae; strain K. pneumoniae BER, SHV-28 + TEM-1, non-carbapenemase producer)?
The MIC was 4 µg/mL.

And the MIC (K. pneumoniae; strain K. pneumoniae ELK, OXA-48 + TEM-1 + CTX-M-15 + SHV-11)?
The MIC was 3 µg/mL.

What about the MIC (K. pneumoniae; strain K. pneumoniae HOL, OXA-181 + CTX-M-15) of the same compound?
Its MIC is 4 µg/mL.

What about the MIC (K. pneumoniae; strain K. pneumoniae MUS, KPC-2 + TEM-1 + SHV-11 + SHV-12) of the same compound?
The MIC was 4 µg/mL.

And the MIC (K. pneumoniae; strain K. pneumoniae OM2, NDM-1 + TEM-1 + CTX-M-3 + SHV-11 + OXA-1)?
The MIC was 8 µg/mL.

And the MIC (K. pneumoniae; strain K. pneumoniae OMA419, NDM-1 + OXA-1)?
Its MIC is 6 µg/mL.

And the MIC (K. pneumoniae; strain K. pneumoniae OMA, OXA-181 + CTXM-15 + OXA-1)?
The MIC was 2 µg/mL.

And the MIC (K. pneumoniae; strain K. pneumoniae ROU, OXA-48 + CTX-M-15)?
Its MIC is 1.5 µg/mL.

And the MIC (K. pneumoniae; strain K. pneumoniae SCO, OXA-48)?
Its MIC is 0.75 µg/mL.

What about the MIC (K. pneumoniae; strain K. pneumoniae SIC, OXA-48 + CTX-M-15 + SHV-28) of the same compound?
Its MIC is 1 µg/mL.

What about the MIC (K. pneumoniae; strain K. pneumoniae VSG, OXA-48 + TEM-1 + CTX-M-15 + OXA-1) of the same compound?
Its MIC is 3 µg/mL.

What about the MIC (P. rettgeri; P. rettgeri RAP, OXA-181 + OXA-1) of the same compound?
The MIC was 1 µg/mL.

And the MIC (P. rettgeri; Providencia rettgeri, P. rettgeri RAP (OXA-181 + OXA-1), read-out: MIC)?
Its MIC is 1 µg/mL.

And the MIC (P. rettgeri; strain P. rettgeri RAP, OXA-181 + OXA-1)?
The MIC was 1 µg/mL.

What about the MIC (C. koseri; C. koseri VER (OXA-48)) of the same compound?
The MIC was 2 µg/mL.

What about the MIC (C. koseri; C. koseri VER, OXA-48) of the same compound?
Its MIC is 2 µg/mL.

And the MIC (C. koseri; Citrobacter koseri, C. koseri ROU, OXA-48, read-out: MIC)?
Its MIC is 2 µg/mL.

What about the MIC (C. koseri; strain C. koseri VER, OXA-48) of the same compound?
The MIC was 2 µg/mL.
